Legend:
Format in all cases: biochemical
[1] = target: T1, ErbB2 (Homo sapiens, UniProt P04626); assay: Kinase inhibition assay (33P transfer), ErbB2; conditions: read-out: ErbB2-2
T1 construct: Kinases are expressed as either kinase domains or full length constructs; made in house
Method in brief: (§1)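 Activity read as 33P incorporation from ATP into poly(Glu,Tyr) 4:1 or poly(Arg,Ser) 3:1 substrate bound to microtiter plates, measured by scintillation after acid washing. Enzymes were affinity-purified GST or polyHis fusions (kinase domain or full length) from E. coli or baculovirus; IC50 = 50% reduction in labelled phosphate.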

[2] = target: T2, Itk (Homo sapiens, UniProt Q08881); assay: Kinase inhibition assay (33P transfer), Itk; conditions: Table 3, class symbols; read-out: Itk-1
T2 construct: Kinases are expressed as either kinase domains or full length constructs; made in house
T2 sequence (Q08881 1-620): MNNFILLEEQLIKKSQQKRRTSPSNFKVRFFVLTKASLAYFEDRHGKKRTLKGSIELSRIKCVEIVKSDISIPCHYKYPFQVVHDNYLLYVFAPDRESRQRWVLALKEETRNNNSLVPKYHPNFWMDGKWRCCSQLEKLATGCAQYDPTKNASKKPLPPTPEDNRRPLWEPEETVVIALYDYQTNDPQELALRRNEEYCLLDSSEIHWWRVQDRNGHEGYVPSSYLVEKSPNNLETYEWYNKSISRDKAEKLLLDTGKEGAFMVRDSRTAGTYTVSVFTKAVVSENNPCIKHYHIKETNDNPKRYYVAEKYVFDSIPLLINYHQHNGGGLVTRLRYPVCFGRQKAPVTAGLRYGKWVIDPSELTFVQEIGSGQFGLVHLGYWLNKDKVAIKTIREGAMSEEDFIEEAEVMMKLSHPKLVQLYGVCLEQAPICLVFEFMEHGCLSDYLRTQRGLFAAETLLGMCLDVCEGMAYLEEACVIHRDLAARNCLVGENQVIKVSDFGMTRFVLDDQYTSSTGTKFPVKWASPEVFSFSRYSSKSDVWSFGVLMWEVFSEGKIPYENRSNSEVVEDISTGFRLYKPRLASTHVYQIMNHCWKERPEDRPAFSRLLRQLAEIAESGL
Method in brief: as §1

[3] = target: T3, c-Met (Homo sapiens, UniProt P08581); assay: Kinase inhibition assay (33P transfer), c-Met; conditions: Table 2, class symbols A-E; read-out: Met-1
T3 construct: Kinases are expressed as either kinase domains or full length constructs; made in house
T3 sequence (P08581 25-1390): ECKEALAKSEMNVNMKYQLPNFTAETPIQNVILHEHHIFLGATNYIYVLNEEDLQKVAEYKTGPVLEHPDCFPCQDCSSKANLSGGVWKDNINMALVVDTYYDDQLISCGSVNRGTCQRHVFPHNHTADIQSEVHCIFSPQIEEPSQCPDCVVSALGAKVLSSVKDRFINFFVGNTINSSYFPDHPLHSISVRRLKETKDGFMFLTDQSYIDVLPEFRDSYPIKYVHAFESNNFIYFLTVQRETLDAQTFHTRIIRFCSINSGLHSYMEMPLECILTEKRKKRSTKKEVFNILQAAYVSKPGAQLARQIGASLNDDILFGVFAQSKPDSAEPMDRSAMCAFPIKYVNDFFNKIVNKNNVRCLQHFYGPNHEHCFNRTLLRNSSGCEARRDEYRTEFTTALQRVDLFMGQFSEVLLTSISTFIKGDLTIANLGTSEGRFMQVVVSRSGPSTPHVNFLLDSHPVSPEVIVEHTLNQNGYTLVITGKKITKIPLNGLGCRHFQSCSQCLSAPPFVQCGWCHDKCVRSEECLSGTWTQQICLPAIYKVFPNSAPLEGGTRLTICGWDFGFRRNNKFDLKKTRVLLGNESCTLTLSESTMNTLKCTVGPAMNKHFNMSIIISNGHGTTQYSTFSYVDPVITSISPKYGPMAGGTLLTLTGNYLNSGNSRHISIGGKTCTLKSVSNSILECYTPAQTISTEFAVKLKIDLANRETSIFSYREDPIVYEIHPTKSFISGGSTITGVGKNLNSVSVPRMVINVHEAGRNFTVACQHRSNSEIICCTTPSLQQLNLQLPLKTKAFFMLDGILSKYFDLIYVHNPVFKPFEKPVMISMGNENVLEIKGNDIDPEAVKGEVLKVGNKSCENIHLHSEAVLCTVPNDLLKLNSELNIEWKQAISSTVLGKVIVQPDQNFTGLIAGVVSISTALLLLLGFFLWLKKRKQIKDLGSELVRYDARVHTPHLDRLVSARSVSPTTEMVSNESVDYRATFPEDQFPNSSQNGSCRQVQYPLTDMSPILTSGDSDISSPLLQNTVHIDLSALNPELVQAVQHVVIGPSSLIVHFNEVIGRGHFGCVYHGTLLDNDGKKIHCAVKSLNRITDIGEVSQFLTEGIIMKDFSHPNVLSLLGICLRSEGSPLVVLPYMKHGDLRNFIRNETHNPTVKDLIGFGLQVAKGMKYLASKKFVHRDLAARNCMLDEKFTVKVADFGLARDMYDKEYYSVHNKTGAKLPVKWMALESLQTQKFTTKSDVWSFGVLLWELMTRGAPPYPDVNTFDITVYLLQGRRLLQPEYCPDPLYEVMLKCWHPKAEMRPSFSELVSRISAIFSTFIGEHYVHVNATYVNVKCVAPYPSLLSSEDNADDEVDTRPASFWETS
Method in brief: as §1

[4] = target: T4, EGFR (Homo sapiens, UniProt P00533); assay: Kinase inhibition assay (33P transfer), EGFR; conditions: Table 2, class symbols A-E; read-out: EGFR-1
T4 construct: Kinases are expressed as either kinase domains or full length constructs; made in house
Method in brief: as §1

[5] = target: T5, Zap-70 (Homo sapiens, UniProt P43403); assay: Kinase inhibition assay (33P transfer), Zap-70; conditions: Table 3, class symbols; read-out: Zap-1
T5 construct: Kinases are expressed as either kinase domains or full length constructs; made in house
T5 sequence (P43403 1-619): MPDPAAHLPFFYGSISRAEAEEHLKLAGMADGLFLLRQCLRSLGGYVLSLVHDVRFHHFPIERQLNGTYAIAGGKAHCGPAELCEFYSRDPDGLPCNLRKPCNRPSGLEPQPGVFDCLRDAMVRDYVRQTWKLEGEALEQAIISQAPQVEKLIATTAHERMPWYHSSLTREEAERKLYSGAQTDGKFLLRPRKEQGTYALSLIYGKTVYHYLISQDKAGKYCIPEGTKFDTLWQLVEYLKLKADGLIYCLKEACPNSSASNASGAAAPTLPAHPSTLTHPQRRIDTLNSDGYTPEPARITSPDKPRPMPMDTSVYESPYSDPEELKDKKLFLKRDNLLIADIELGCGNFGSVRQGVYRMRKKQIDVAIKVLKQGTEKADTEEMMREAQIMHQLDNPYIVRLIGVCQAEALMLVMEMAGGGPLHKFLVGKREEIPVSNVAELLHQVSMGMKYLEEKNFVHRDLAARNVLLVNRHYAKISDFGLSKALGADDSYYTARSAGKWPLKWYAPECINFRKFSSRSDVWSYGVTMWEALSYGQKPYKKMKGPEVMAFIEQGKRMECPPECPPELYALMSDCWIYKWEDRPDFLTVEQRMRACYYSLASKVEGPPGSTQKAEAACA
Method in brief: (§2)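 Kinase domain or full-length constructs, GST- or polyHis-tagged, expressed in E. coli or baculovirus-High Five cells, sometimes with regulatory polypeptides. Activity measured as 33PO4 transfer from ATP to plate-bound poly(Glu,Tyr) 4:1 or poly(Arg,Ser) 3:1; after incubation, plates washed with 0.5% phosphoric acid and counted by liquid scintillation.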

[6] = target: T6, IGFR-1 (Homo sapiens, UniProt P08069); assay: Kinase inhibition assay (33P transfer), IGFR-1; conditions: Table 2, class symbols A-E
T6 construct: Kinases are expressed as either kinase domains or full length constructs; made in house

[7] = target: T7, Lck (Homo sapiens, UniProt P06239); assay: Kinase inhibition assay (33P transfer), Lck; conditions: Table 3, class symbols; read-out: Lck-1
T7 construct: Kinases are expressed as either kinase domains or full length constructs; made in house
T7 sequence (P06239 whole entry, species assumed, the tested form may be a part): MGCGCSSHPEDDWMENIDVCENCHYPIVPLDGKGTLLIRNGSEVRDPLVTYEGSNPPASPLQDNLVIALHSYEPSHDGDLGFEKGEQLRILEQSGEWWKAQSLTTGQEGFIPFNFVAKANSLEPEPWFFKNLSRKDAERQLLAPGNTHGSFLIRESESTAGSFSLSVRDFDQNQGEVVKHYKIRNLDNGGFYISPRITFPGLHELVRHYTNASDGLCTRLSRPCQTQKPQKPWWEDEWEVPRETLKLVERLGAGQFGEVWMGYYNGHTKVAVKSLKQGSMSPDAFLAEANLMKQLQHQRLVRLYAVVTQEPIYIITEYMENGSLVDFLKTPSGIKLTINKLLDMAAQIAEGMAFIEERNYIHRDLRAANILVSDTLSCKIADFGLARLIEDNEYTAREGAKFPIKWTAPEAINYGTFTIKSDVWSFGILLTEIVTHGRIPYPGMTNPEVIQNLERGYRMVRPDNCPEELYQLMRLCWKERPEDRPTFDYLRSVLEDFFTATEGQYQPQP
Method in brief: as §2

[8] = target: T8, Kdr (Homo sapiens, UniProt P35968); assay: Kinase inhibition assay (33P transfer), Kdr; conditions: Table 3, class symbols; read-out: KDR-1
T8 construct: Kinases are expressed as either kinase domains or full length constructs; made in house
Method in brief: as §2

[9] = target: T9, AKT (Homo sapiens, UniProt Q9Y243); assay: Kinase inhibition assay (33P transfer), AKT; conditions: Table 2, class symbols A-E; read-out: AKT3-1
T9 construct: Kinases are expressed as either kinase domains or full length constructs; made in house
T9 sequence (Q9Y243 whole entry, the tested form may be a part): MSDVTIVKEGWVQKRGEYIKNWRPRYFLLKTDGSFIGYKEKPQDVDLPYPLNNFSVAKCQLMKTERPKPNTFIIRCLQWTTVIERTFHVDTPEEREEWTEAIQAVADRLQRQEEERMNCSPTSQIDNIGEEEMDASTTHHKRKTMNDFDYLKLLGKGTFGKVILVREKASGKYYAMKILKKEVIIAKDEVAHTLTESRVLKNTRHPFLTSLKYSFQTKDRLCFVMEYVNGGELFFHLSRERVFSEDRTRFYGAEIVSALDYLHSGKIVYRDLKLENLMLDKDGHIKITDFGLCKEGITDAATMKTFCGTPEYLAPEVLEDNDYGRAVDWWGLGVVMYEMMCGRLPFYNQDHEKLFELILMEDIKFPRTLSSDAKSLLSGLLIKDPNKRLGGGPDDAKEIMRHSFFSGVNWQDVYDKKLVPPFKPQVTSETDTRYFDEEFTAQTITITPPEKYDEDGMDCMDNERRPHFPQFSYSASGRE
Method in brief: as §2

[10] = target: T10, PDGFRB (Homo sapiens, UniProt P09619); assay: Kinase inhibition assay (33P transfer), PDGFRB; conditions: read-out: PDGFRB-1
T10 construct: Kinases are expressed as either kinase domains or full length constructs; made in house
T10 sequence (P09619 33-1106, species assumed): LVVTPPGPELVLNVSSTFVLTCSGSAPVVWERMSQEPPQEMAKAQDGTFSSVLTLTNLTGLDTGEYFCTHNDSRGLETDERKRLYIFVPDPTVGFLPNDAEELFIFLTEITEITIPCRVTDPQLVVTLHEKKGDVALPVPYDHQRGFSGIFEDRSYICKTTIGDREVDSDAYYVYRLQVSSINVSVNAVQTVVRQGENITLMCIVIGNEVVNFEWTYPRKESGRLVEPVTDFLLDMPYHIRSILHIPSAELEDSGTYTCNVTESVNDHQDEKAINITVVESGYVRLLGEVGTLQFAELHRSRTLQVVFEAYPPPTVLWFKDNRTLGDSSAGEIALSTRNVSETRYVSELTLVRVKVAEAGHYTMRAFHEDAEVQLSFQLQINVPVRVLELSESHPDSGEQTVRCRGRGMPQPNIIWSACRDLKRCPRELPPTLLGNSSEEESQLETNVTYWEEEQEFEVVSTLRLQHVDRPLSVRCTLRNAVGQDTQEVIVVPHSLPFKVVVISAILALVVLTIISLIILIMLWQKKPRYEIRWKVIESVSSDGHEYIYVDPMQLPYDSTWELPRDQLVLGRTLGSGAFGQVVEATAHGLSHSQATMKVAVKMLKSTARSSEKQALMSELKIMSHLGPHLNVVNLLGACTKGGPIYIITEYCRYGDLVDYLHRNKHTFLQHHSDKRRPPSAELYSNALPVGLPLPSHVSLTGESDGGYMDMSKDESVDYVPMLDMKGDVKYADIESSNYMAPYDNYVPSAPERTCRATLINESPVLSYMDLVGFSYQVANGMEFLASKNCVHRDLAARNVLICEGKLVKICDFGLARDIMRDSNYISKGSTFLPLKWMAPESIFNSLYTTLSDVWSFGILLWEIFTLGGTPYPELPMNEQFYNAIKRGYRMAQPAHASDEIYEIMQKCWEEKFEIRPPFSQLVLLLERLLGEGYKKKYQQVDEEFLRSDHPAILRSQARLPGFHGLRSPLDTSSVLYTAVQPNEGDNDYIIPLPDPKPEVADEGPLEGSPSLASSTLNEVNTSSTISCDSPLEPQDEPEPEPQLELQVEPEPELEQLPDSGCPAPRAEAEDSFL

T1 sequence (P04626 23-1255, species assumed): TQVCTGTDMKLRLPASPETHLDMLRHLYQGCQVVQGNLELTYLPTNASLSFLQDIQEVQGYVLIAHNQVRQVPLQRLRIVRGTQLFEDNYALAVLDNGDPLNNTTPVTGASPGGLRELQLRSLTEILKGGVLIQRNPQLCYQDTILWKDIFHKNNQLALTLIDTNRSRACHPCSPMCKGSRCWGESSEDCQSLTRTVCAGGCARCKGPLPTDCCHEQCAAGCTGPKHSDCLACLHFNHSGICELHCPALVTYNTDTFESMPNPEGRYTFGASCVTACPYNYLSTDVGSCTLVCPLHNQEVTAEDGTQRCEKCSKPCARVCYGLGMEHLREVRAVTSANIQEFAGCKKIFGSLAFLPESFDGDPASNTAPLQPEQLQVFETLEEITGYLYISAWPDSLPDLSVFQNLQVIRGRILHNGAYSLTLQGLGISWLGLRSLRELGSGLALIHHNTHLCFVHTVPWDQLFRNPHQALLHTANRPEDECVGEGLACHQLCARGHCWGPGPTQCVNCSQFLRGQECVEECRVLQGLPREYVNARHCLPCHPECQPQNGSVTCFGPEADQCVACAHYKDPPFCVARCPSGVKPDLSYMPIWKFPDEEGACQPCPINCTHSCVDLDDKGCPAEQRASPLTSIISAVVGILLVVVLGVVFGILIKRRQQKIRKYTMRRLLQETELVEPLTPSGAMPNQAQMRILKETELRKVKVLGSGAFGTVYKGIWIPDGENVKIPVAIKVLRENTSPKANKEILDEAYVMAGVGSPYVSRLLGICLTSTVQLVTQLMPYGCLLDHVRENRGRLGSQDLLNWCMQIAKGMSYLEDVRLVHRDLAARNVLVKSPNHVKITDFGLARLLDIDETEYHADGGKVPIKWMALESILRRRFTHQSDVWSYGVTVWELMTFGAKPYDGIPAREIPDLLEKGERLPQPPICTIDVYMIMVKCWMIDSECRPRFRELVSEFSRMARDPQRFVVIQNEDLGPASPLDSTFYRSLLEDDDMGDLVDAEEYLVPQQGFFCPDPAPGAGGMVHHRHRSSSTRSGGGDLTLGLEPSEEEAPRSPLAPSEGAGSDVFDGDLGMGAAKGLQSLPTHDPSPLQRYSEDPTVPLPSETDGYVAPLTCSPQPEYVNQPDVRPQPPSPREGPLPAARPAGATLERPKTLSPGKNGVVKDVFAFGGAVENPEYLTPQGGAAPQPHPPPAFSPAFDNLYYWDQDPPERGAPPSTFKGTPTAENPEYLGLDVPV

SMILES	IC50 [1] [µM]	IC50 [2] [µM]	IC50 [3] [µM]	IC50 [4] [µM]	IC50 [5] [µM]	IC50 [6] [µM]	IC50 [7] [µM]	IC50 [8] [µM]	IC50 [9] [µM]	IC50 [10] [µM]
COc1cc(Nc2ncnc(-c3cccnc3Nc3ccccc3C)n2)cc(OC)c1OC [Compound 833]	> 10.1	> 10.1	> 10.1	> 10.1	> 10.1	> 10.1	< 0.9	< 0.9	> 10.1	< 0.9
CC(C)Nc1ncccc1-c1ncnc(Nc2cccc(Cn3ccnn3)c2)n1 [Compound 1098]	> 11.6	1.03 to 6.19	6.19 to 9.03	6.19 to 9.03	> 11.6	> 11.6	1.03 to 6.19	1.03 to 6.19	6.19 to 9.03	1.03 to 6.19
Fc1ccc(CNc2ncnc(Nc3cc(-c4ccco4)n[nH]3)n2)cc1 [Compound 996]	> 12.8	> 12.8	> 12.8	9.96 to 12.8	> 12.8	1.14 to 6.83	> 12.8	> 12.8	> 12.8	> 12.8
Cc1ccc(Cl)cc1Nc1ncnc(N2c3ccc(F)cc3CCC2C)n1 (stereo not shown) [Compound 644]	> 11.7	9.12 to 11.7	1.04 to 6.25	1.04 to 6.25	> 11.7	> 11.7	> 11.7	1.04 to 6.25	> 11.7	1.04 to 6.25
COC(=O)c1ccc(-c2cc(Nc3ncnc(NCc4ccco4)n3)[nH]n2)cc1 [Compound 805]	> 11.5	6.13 to 8.94	6.13 to 8.94	> 11.5	> 11.5	6.13 to 8.94	> 11.5	> 11.5	> 11.5	> 11.5
COc1cc(Nc2ncnc(-n3ccnc3Cl)n2)cc(OC)c1OC [Compound 1071]	> 12.4	1.1 to 6.62	> 12.4	1.1 to 6.62	> 12.4	1.1 to 6.62	9.65 to 12.4	9.65 to 12.4	> 12.4	1.1 to 6.62
CN(c1cccc(Cl)c1)c1ncnc(Nc2cc(Cl)c(Cl)c(Cl)c2)n1 [Compound 804]	> 10.8	> 10.8	> 10.8	> 10.8	> 10.8	> 10.8	> 10.8	> 10.8	> 10.8	8.43 to 10.8
COc1ccc(Nc2ncnc(Nc3ccc4c(c3)C(=O)OC4)n2)cc1OC [Compound 894]	> 11.9	9.23 to 11.9	> 11.9	6.33 to 9.23	> 11.9	> 11.9	> 11.9	1.05 to 6.33	> 11.9	< 1.05
COc1cc(Nc2ncnc(-c3cccnc3Nc3ccc(Cl)cc3C)n2)cc(OC)c1OC [Compound 834]	> 9.4	> 9.4	> 9.4	> 9.4	> 9.4	> 9.4	> 9.4	0.835 to 5.01	> 9.4	< 0.835
COC(=O)c1ccc(-c2cc(Nc3ncnc(NCCN4CCNC4=O)n3)[nH]n2)cc1 [Compound 820]	> 10.6	8.27 to 10.6	> 10.6	> 10.6	> 10.6	8.27 to 10.6	> 10.6	> 10.6	> 10.6	> 10.6
Fc1ccc(CNc2ncccc2-c2ncnc(Nc3ccc4[nH]ncc4c3)n2)cc1 [Compound 1108]	> 10.9	5.82 to 8.49	> 10.9	0.97 to 5.82	5.82 to 8.49	5.82 to 8.49	5.82 to 8.49	< 0.97	0.97 to 5.82	< 0.97

These reach a lower IC50 [1]. Values come first.

IC50 [1] [µM]	IC50 [2] [µM]	IC50 [3] [µM]	IC50 [4] [µM]	IC50 [5] [µM]	IC50 [6] [µM]	IC50 [7] [µM]	IC50 [8] [µM]	IC50 [9] [µM]	IC50 [10] [µM]	SMILES
0.945 to 5.67	8.26 to 10.6	0.945 to 5.67	< 0.945	> 10.6	5.67 to 8.26	0.945 to 5.67	5.67 to 8.26	8.26 to 10.6	0.945 to 5.67	COc1cccc(Nc2ncnc(Nc3ccc4c(cnn4Cc4ccccc4)c3)n2)c1 [Compound 904]
5.11 to 7.46	> 9.59	0.852 to 5.11	0.852 to 5.11	> 9.59	> 9.59	> 9.59	5.11 to 7.46	> 9.59	0.852 to 5.11	COC(=O)c1ccc(-c2cc(Nc3ncnc(Nc4cc(=O)n(-c5ccccc5)[nH]4)n3)[nH]n2)cc1 [Compound 880]
0.884 to 5.3	< 0.884	5.3 to 7.73	0.884 to 5.3	5.3 to 7.73	0.884 to 5.3	0.884 to 5.3	< 0.884	> 9.94	< 0.884	Fc1ccc(CNc2ncccc2-c2ncnc(Nc3cccc(Cn4ccnc4)c3)n2)cc1 [Compound 1109]
< 0.954	0.954 to 5.72	0.954 to 5.72	< 0.954	0.954 to 5.72	0.954 to 5.72	0.954 to 5.72	0.954 to 5.72	8.35 to 10.7	0.954 to 5.72	FC(F)(F)Sc1cccc(Nc2ncnc(Nc3cc(-c4ccco4)[nH]n3)n2)c1 [Compound 827]
0.809 to 4.85	> 9.1	> 9.1	> 9.1	> 9.1	4.85 to 7.08	> 9.1	< 0.809	> 9.1	0.809 to 4.85	COc1cc(Nc2ncnc(-c3cccnc3NCc3cccc4ccccc34)n2)cc(OC)c1OC [Compound 844]
< 0.949	> 10.7	5.69 to 8.3	< 0.949	> 10.7	> 10.7	5.69 to 8.3	5.69 to 8.3	> 10.7	8.3 to 10.7	Cc1cccc(Nc2ncnc(N(C)c3ccc4c(cnn4Cc4ccccc4)c3)n2)c1 [Compound 668]
0.843 to 5.06	5.06 to 7.38	> 9.48	< 0.843	> 9.48	> 9.48	0.843 to 5.06	< 0.843	> 9.48	< 0.843	c1ccc(CNc2nc3ccccc3n2-c2ncnc(Nc3cccc(Cn4ccnn4)c3)n2)cc1 [Compound 965]
0.815 to 4.89	4.89 to 7.14	< 0.815	0.815 to 4.89	> 9.17	< 0.815	< 0.815	0.815 to 4.89	> 9.17	0.815 to 4.89	COc1cc(Nc2ncnc(Nc3cc(-c4ccc(C(=O)N(C)C)cc4)n[nH]3)n2)cc(OC)c1OC [Compound 993]
